From US20250214925A1, “CATIONIC LIPID, LIPOSOME, LIPID NANOPARTICLE, AND USE” (CARCELL BIOPHARMA LTD., priority 2022, published 2025)

Legend:
[1] = LNP size and PDI by dynamic laser light scattering; type: physicochemical; details: LNP: 50% cationic lipid, 38.5% cholesterol, 10% DSPC, 1.5% DMG-PEG2000; Ffluc mRNA
Description: (§1) 1. The cationic lipid (50 mg/mL) prepared in the above examples of the present disclosure, cholesterol (20 mg/mL), DSPC (20 mg/mL) and DMG-PEG2000 (20 mg/mL) were dissolved in ethanol, and the solution was placed in a 55° C. metal thermostatic bath as needed to aid dissolution, to obtain a lipid mixture with the following molar composition: 1.5% DMG-PEG2000, 50% cationic lipid, 38.5% cholesterol, and 10% DSPC.
(§2) 2. The mRNA encoding Ffluc was diluted with 10 mM pH 4.0 citrate buffer to prepare a 0.2 mg/mL mRNA solution.
(§3) 3. The lipid mixture prepared in step 1 was mixed with the mRNA solution prepared in step 2 using a syringe pump with a tee at a total flow rate of 40 mL/min.
(§4) 4. The LNP mixture was collected after the three-way mixing and placed in a dialysis bag with a molecular weight cut-off of 100 KDa.
(§5) 5. The LNP mixture was dialyzed overnight against 50 mM Tris-buffered saline, pH 7.4.
(§6) 6. Sieving, and subsequent measurement of the sieved LNP to measure the PDI of the LNP by dynamic laser light scattering; to measure the mRNA encapsulation efficiency and concentration by Ribogreen assay; and to measure the pKa by TNS-α assay.

[2] = mRNA encapsulation efficiency of LNP by Ribogreen assay; type: physicochemical; details: LNP: 50% cationic lipid, 38.5% cholesterol, 10% DSPC, 1.5% DMG-PEG2000; Ffluc mRNA
Description: as §1, §2, §3, §4, §5, §6

mice = assay: In vivo delivery of Ffluc mRNA LNP in mice, intravenous administration, luminescence relative to MC3; design: species or system mice (female Balb/C); details: fold change in luminescence intensity relative to MC3; 0.06 mg/kg tail vein; 6 h after injection
Description: The prepared encapsulation solution was applied to mice in the following manner, and its delivery efficiency in mice was tested. Among them, DLin-MC3-DMA (MC3) was a cationic liposome for delivering small nucleic acids that was approved by the FDA for marketing in 2018, which has high nucleic acid drug delivery efficiency and biosafety, and was usually used as the industry gold standard in the screening process of cationic lipids. In the evaluation of mice experiments, the ratio of nucleic acid delivery efficiency normalized to MC3 was greater than 0.1, which was considered to be a cationic lipid with high delivery efficiency.
1. The LNP solution was diluted with 50 mM TBS, pH 7.4 to a concentration of 0.1 mg/mL mRNA.
2. The mice involved in this study were female Balb/C, weighing 18-22 g, 6-8 weeks old, with 5 mice in each group.
3. The dosing solution was kept at 4° C. prior to injection.
4. Each mice received 0.06 mg/kg via tail vein injection.
5. The mice were injected intraperitoneally with 200 μL of 1.5 mg/mL D-luciferin solution 6 h after injection.
6. The in vivo luminescence images of the mice were obtained using the IVIS system (Aniview).
7. The luminescence intensity of each mice was measured using Aniview software.
8. MC3 lipid nanoparticles were used as a positive control. The in vivo efficacy of each cationic lipid tested was recorded as the fold change in luminescence intensity relative to MC3 (ratio normalized to MC3).

Compound | PDI [1] | Size (nm) [1] | Encapsulation Rate [2] | In Vivo Efficacy Normalized To Mc3 In Mice (Intravenous Injection) (mice)
CCCCCC/C(=C/C(=O)OCCCCCCCN(CCCO)CCCCCCCOC(=O)/C=C(\CCCCC)CCCCCC)CCCCC [CPL-090, ((3-hydroxypropyl)azanediyl)bis(heptane-7,1-diyl) (2E,2′E)-bis(3-pentylnon 2-enoate)] | 0.1615 | 85.28 nm | 94% | 2.02
CCCCCC/C(=C/C(=O)OCCCCCCCCN(CCCO)CCCCCCCCOC(=O)/C=C(\CCCCC)CCCCCC)CCCCC [CPL-112, ((3-hydroxypropyl)azanediyl)bis(octane-8,1-diyl)(2E,2′E)-bis(3-pentylnon-2-enoate)] | 0.1173 | 85.04 nm | 95% | 2.14
CCCCC/C=C\C/C=C\CCCCCCCC(=O)OCC(COC(=O)/C=C(\CCCC)CCCCC)COC(=O)OCCN(C)C (stereo not shown) [CPL-199, 3-(((E)-3-butyloct-2-enoyl)oxy)-2-((((2-(dimethylamino)ethoxy)carbonyl)oxy)methyl)propyl(9Z,12Z)-octadeca-9,12-dienoate] | 0.1394 | 86.92 nm | 96% | 0.12
CCCCC/C=C\C/C=C\CCCCCCCC(=O)OCC(COC(=O)C=C(CCCCCCCC)CCCCCCCC)COC(=O)OCCN(C)C (stereo not shown) [CPL-210, 3-(((2-(dimethylamino)ethoxy)carbonyl)oxy)-2-(((3-octylundec-2-enoyl)oxy)methyl)propyl(9Z,12Z)-octadeca-9,12-dienoate] | 0.2144 | 52.37 nm | 83% | 0.14
CCCCC/C=C\C/C=C\CCCCCCCC(=O)OCC(COC(=O)/C=C(\CCCC)CCCCC)COC(=O)OCCCN(C)C (stereo not shown) [CPL-221, 3-(((E)-3-butyloct-2-enoyl)oxy)-2-((((3-(dimethylamino)propoxy)carbonyl)oxy)methyl)propyl(9Z,12Z)-octadeca-9,12-dienoate] | 0.0453 | 82.01 nm | 96% | 0.44
CCCCC/C=C\C/C=C\CCCCCCCC(=O)OCC(COC(=O)/C=C(\CCCCC)CCCCCC)COC(=O)OCCCN(C)C (stereo not shown) [CPL-222, 3-(((3-(dimethylamino)propoxy)carbonyl)oxy)-2-((((E)-3-pentylnon-2-enoyl)oxy)methyl)propyl(9Z,12Z)-octadeca-9,12-dienoate] | 0.0629 | 72.01 nm | 96% | 0.37
CCCCC/C=C\C/C=C\CCCCCCCC(=O)OCC(COC(=O)C=C(CCCCCCCCCC)CCCCCCCCCC)COC(=O)OCCCCN(C)C (stereo not shown) [CPL-256, 3-((3-decyltridec-2-enoyl)oxy)-2-((((4-(dimethylamino)butyloxy)carbonyl)oxy)methyl)propyl(9Z,12Z)-octadeca-9,12-dienoate] | 0.1009 | 83.7 nm | 95% | 0.63
CCCCC/C=C\C/C=C\CCCCCCCC(=O)OCC(COC(=O)/C=C(\CCCCC)CCCCCC)COC(=O)OCCCN(CC)CC (stereo not shown) [CPL-266, 3-(((3-(diethylamino)propoxy)carbonyl)oxy)-2-((((E)-3-pentylnon-2-enoyl)oxy)methyl)propyl(9Z,12Z)-octadeca-9,12-dienoate] | 0.0481 | 68.11 nm | 97% | 0.72

Now from value to compound, other results behind:

PDI [1] | Size (nm) [1] | Encapsulation Rate [2] | Compound | In Vivo Efficacy Normalized To Mc3 In Mice (Intravenous Injection) (mice)
0.2409 | 110.1 nm | 94% | CCCCCCCCCC/C(=C/C(=O)OCCCCCN(CCCO)CCCCCOC(=O)/C=C(\CCCCC)CCCCCCCCCC)CCCCC [CPL-048, ((3-hydroxypropyl)azanediyl)bis(pentane-5,1-diyl) (2E,2′E)-bis(3-pentyltridec-2-enoate)] | 1.57
0.1651 | 101.6 nm | 90% | CCCCCCC(=CC(=O)OCCCCCN(CCCO)CCCCCOC(=O)C=C(CCCCCC)CCCCCC)CCCCCC [CPL-049, ((3-hydroxypropyl)azanediyl)bis(pentane-5,1-diyl)(2E,2′E)-bis(3-hexylnon-2-enoate)] | 1.88
0.1162 | 90.76 nm | 93% | CCCCCCC/C(=C/C(=O)OCCCCCN(CCCO)CCCCCOC(=O)/C=C(\CCCC)CCCCCCC)CCCC [CPL-052, ((3-hydroxypropyl)azanediyl)bis(pentane-5,1-diyl) (2E,2′E)-bis(3-butyldec-2-enoate)] | 1.46
0.1612 | 94.04 nm | 94% | CCCCCCCC/C(=C/C(=O)OCCCCCCN(CCCO)CCCCCCOC(=O)/C=C(\CCC)CCCCCCCC)CCC [CPL-061, ((3-hydroxypropyl)azanediyl)bis(hexane-6,1-diyl) (2E,2′E)-bis(3-propylundec-2-enoate)] | 1.06
0.1898 | 83.7 nm | 95% | CCCCCCCC/C(=C/C(=O)OCCCCCCN(CCCO)CCCCCCOC(=O)/C=C(\CCCC)CCCCCCCC)CCCC [CPL-065, ((3-hydroxypropyl)azanediyl)bis(hexane-6,1-diyl) (2E,2′E)-bis(3-butylundec-2-enoate)] | 1.62
0.173 | 84.6 nm | 94% | CCCCCCC/C(=C/C(=O)OCCCCCCCCCCCN(CCCO)CCCCCCCCCCCOC(=O)/C=C(\CCCC)CCCCCCC)CCCC [CPL-184, ((3-hydroxypropyl)azanediyl)bis(undecane-11,1-diyl) (2E,2′E)-bis(3butyldec-2-enoate)] | 0.98
0.1194 | 114.4 nm | 87% | CCCCC/C=C\C/C=C\CCCCCCCC(=O)OCC(COC(=O)/C=C(/CCCC)CCCCCC)COC(=O)OCCCN(C)C (stereo not shown) [CPL-218, 3-(((Z)-3-butylnon-2-enoyl)oxy)-2-((((3-(dimethylamino)propoxy)carbonyl)oxy)methyl)propyl(9Z,12Z)-octadeca-9,12-dienoate] | 0.19
0.102 | 99.55 nm | 98% | CCCCC/C=C\C/C=C\CCCCCCCC(=O)OCC(COC(=O)/C=C(\CCCCC)CCCCCCCC)COC(=O)OCCCN(C)C (stereo not shown) [CPL-223, 3-(((3-(dimethylamino)propoxy)carbonyl)oxy)-2-((((E)-3-pentylundec-2-enoyl)oxy)methyl)propyl(9Z,12Z)-octadeca-9,12-dienoate] | 0.41
0.1162 | 90.88 nm | 94% | CCCCC/C=C\C/C=C\CCCCCCCC(=O)OCC(COC(=O)/C=C(\CCCCC)CCCCCCCCCC)COC(=O)OCCCN(C)C (stereo not shown) [CPL-224, 3-(((3-(dimethylamino)propoxy)carbonyl)oxy)-2-((((E)-3-pentyltridec-2-enoyl)oxy)methyl)propyl(9Z,12Z)-octadeca-9,12-dienoate] | 0.87
0.1118 | 69.42 nm | 95% | CCCCC/C=C\C/C=C\CCCCCCCC(=O)OCC(COC(=O)/C=C(\CCCCCCC)CCCCCCCCCC)COC(=O)OCCCN(C)C (stereo not shown) [CPL-231, 3-(((3-(dimethylamino)propoxy)carbonyl)oxy)-2-((((E)-3-heptyltridec-2-enoyl)oxy)methyl)propyl(9Z,12Z)-octadeca-9,12-dienoate] | 0.55
0.1369 | 86.5 nm | 98% | CCCCC/C=C\C/C=C\CCCCCCCC(=O)OCC(COC(=O)/C=C(\CCCCCCC)CCCCCCCC)COC(=O)OCCCCN(C)C (stereo not shown) [CPL-252] | 0.34
